Data reported in patent US20040005291A1, “Methods for regulating co-stimulatory molecule expression with reactive oxygen” (priority 2001, published 2004).

What was measured:
Fas and B7 = Fas and B7 levels in cells in the presence of 2-deoxyglucose; format: cell-based; settings: cells where glucose cannot bind to its receptor
Description: […] Cells were then harvested, stained with fluorescent labeled anti-Fas, or with isotype controls as indicated. […] Data were analyzed using Becton Dickinson CellQuest software.

B7 on MCF7 cells = settings: H2O2 at subcytotoxic levels
Excerpt: We added H2O2 (at subcytotoxic levels) directly to cells (MCF7, HL60, U937, and neural cells PC12 and PC12Trk^15) in culture to see if this caused changes in B7 expression.

[1] = test system: B7.2 on PC12 neural cell line; settings: PC12 cells, 0.25 mM H202, 48 hours
Description: (§1) The cells were then exposed to 200 mW of low frequency microwaves for 30 minutes, 1 hour, or 3 hours. Cells were then stained with DCF-DA (Molecular Probes, Inc. Eugene, Oreg.) as an indicator of relative levels of H202. Cells were also stained with fluorescent labeled antibodies to human B7.2 (Pharmingen, Inc.), versus fluorescent labeled, isotype matched control antibodies, upper panels, left and right, respectively. Indicated levels represent the ratio of specific B7.2 stain over the fluorescently labeled isotype control for each condition. Replicate samples, microwaved for the indicated time periods, were subsequently cultured for an additional 21 hours and stained for H202 and B7.2, as indicated, lower panels. Cells were analyzed flow cytometrically using a Coulter Excel Flow Cytometer. Data were analyzed using Becton Dickinson CellQuest software.
(§2) Methods: Human myelocyte cells U937, HL60, PC12, and PC12Trk cells were cultured in the presence of subcytotoxic doses (0.25 mM) of H202 for 48 hours, harvested and stained with isotype controls or fluorescent labeled anti-B7.2 as described in Example 1. Cells were analyzed flow cytometrically using a Coulter Excel Flow Cytometer. Data were analyzed using Becton Dickinson CellQuest software.

B7.2 on HL60 cells = settings: 0.25 mM H202, 48 hours
Description: as §1, §2

[2] = test system: B7.2 on PC12Trk neural cell line; settings: PC12Trk cells, 0.25 mM H202, 48 hours
Description: as §1, §2

B7.2 on U937 cells = settings: 0.25 mM H202, 48 hours
Description: as §1, §2

[3] = test system: Fas on keratinocyte cell line; settings: mouse keratinocyte cell line, 0.25 mM H2O2, 12 or 24 hours
Description: (§3) A mouse keratinocyte cell line was incubated with or without 0.25 mM Hydrogen Peroxide (H2O2) for 12 or 24 hours. Then the level of B7.1 and Fas were evaluated. The data is attached as FIGS. 3A and 3B.

[4] = test system: B7.1 on keratinocyte cell line; settings: mouse keratinocyte cell line, 0.25 mM H2O2, 12 or 24 hours
Description: as §3

[5] = test system: reactive oxygen in neural stem cells; settings: DCF-DA stain, FIG. 4
Description: FIG. 4 is a graph depicting the effects of ethanol in neural stem cells. The cells were stained with DCF-DA.
Methods: Neural stem cells were treated as described above.

[6] = test system: co-stimulatory molecules in neural stem cells
Fas on HL60 cells = assay: Cell surface Fas expression, flow cytometry with anti-Fas; format: cell-based
Description: Methods: HL60 cells were incubated with insulin or under in conditions of low glucose overnight. Cells were then harvested, stained with fluorescent labeled anti-Fas, or with isotype controls as indicated. […] Data were analyzed using Becton Dickinson CellQuest software.

O=CC[C@@H](O)[C@H](O)[C@H](O)CO [2-deoxyglucose]
levels of these molecules (Fas and B7) (Fas and B7): substantial reductions

OO [H2O2, Hydrogen Peroxide]
B7 expression (B7 on MCF7 cells): increase in B7 | cell surface expression of B7.2 [1]: increased cell surface expression of B7.2 | cell surface expression of B7.2 (B7.2 on HL60 cells): increased cell surface expression of B7.2 | cell surface expression of B7.2 [2]: increased cell surface expression of B7.2 | cell surface expression of B7.2 (B7.2 on U937 cells): increased cell surface expression of B7.2 | level of expression of Fas [3]: increases | level of expression of B7.1 [4]: increases

CCO [alcohol, ethanol]
reactive oxygen [5]: increase reactive oxygen | induction of co-stimulatory molecules [6]: increased induction of co-stimulatory molecules

insulin
cell surface Fas expression (Fas on HL60 cells; HL60 cells incubated with insulin overnight): loss of cell surface Fas expression | reduction of levels of Fas (Fas on HL60 cells; addition of insulin to cells in culture): ten-fold
